From patent US10711245B2, “Direct conversion method of human fibroblasts into neural stem cells using small molecules” (KOREA UNIVERSITY RESEARCH AND BUSINESS FOUNDATION, priority 2015, dated 2020)

tested on: human fibroblasts; assay: Marker gene expression by quantitative PCR in human fibroblasts cultured with each single small-molecule compound; assay type: cell-based; conditions: each compound alone in neurobasal medium (DMEM/F12, N2, B27, bFGF, EGF), markers nestin, sox1, sox2, pax6
Protocol: To investigate the function of each of small-molecule compounds and find an optimal combination of small-molecule compounds, 1×10^5 human fibroblasts were prepared in 60 mm dishes, and on the next day, the cells were cultured in a neurobasal medium (containing DMEM/F12, N2, B27, bFGF, and EGF) supplemented with each of 13 different small-molecule compounds (PD0325901, SB431542, Thiazovivin, Ascorbic acid, PS48, CHIR99021, Deazaneplanocin A, Valproic acid, Forskolin, Tranylcypromine, A8301, 5-AZA, and Purmorphamine). Then, the morphological changes of the cells were observed while the medium was replaced at 2-3-day intervals (FIG. 1). The cells were subcultured at 5-day intervals, and in this stage, the cells were sampled in order to examine gene expression patterns therein. Using the cell sample, the expression patterns of a fibroblast marker (Thy1), neural stem cell markers (nestin, sox1, sox2, pax6), a MET or EMT marker (snail, N-cadherin, E-cadherin), endodermal and mesodermal markers (AFP, GATA4), and a marker (Zsacn4) associated with the maintenance of chromosomal stability, in the cell sample, were analyzed by quantitative PCR (FIG. 2).

| Compound | expressions of the neural stem cell marker genes |
| --- | --- |
| Nc1nccc2c1ncn2[C@@H]1C=C(CO)[C@@H](O)[C@H]1O [Deazaneplanocin A, 5R-(4-amino-1H-imidazo[4,5-c]pyridin-1-yl)-3-(hydroxymethyl)-3-cyclopentene-1S,2R-diol] | distinctly increased |
| NC(=O)c1ccc(-c2nc(-c3ccc4c(c3)OCO4)c(-c3ccccn3)[nH]2)cc1 [SB431542, 4-[4-(3,4-Methylenedioxyphenyl)-5-(2-pyridyl)-1H-imidazol-2-yl]benzamide] | distinctly increased |
| Cc1cnc(-c2cnc(NCCNc3ccc(C#N)cn3)nc2-c2ccc(Cl)cc2Cl)[nH]1 [CHIR99021, 6-[[2-[[4-(2,4-dichlorophenyl)-5-(5-methyl-1H-imidazol-2-yl)-2-pyrimidinyl]amino]ethyl]amino]-3-pyridinecarbonitrile] | distinctly increased |
| O=C(NCc1ccccc1)c1csc(Nc2ccncn2)n1 [Thiazovivin, N-(phenylmethyl)-2-(4-pyrimidinylamino)-4-thiazolecarboxamide] | distinctly increased |
| Nc1ncn([C@@H]2O[C@H](CO)[C@@H](O)[C@H]2O)c(=O)n1 [5-AZA, 4-amino-1-β-D-ribofuranosyl-1,3,5-triazin-2(1H)-one] | distinctly increased |
| CCCC(CCC)C(=O)O [Valproic acid, 2-propyl-pentanoic acid] | distinctly increased |
| Cc1cccc(-c2nn(C(=S)Nc3ccccc3)cc2-c2ccnc3ccccc23)n1 [A8301, 3-(6-Methyl-2-pyridinyl)-N-phenyl-4-(4-quinolinyl)-1H-pyrazole-1-carbothioamide] | distinctly increased |
